Results reported in patent publication US20030166290A1, “Low formaldehyde producing blood diluent” (priority 2002, published 2003).

Assay: Formaldehyde production in test blood diluents containing antimicrobial agents (EPA Method 8315A)
Assay type: physicochemical
Conditions: when employed in the blood diluent of the invention
Experimental: Diluent components into which the listed antimicrobials were added were:
Each test diluent was assayed for formaldehyde production within about two weeks from time of production to determine if formaldehyde is produced. Different lots of the final diluent formulation were monitored for formaldehyde concentration over a year's time. […] This method entails derivitizing the diluent sample with 2,4-dinitrophenylhydrazine to convert the carbonyl groups of aldehydes present to the hydrazones. Each carbonyl compound present in the sample forms a separate hydrazone derivative and these individual derivatives are extracted from the diluent solution using an organic solvent. The individual hydrazone derivatives are separated and quantified by HPLC (High Performance Liquid Chromatography).

O=[N+]([O-])C1(Br)COCOC1 [5-bromo-5-nitro-1,3-dioxane]
formaldehyde produced or contained: ≤ 1 ppm
